Measured values taken from publication PMC2770896, “Inhibition of Neuraminidase Inhibitor-Resistant Influenza Virus by DAS181, a Novel Sialidase Fusion Protein” (PLoS ONE, 2009).
Read-outs that look alike come from different tables or passages of the source.

Columns and labels:
[1] = tested on: A/St.Louis/539/09; type: cell-based, IFV A (H1N1)
[2] = tested on: A/NewJersey/15/07; type: cell-based, IFV A (H1N1)
[3] = target: NA enzymatic activity of A/St.Louis/775/09 (Influenza A virus, UniProt D0FH53); assay: Chemiluminescent neuraminidase activity inhibition (NI) assay; type: biochemical, IFV A (H1N1); conditions: for R/S: NI assay; for IC50: mean of triplicate analysis
Description: (§1) The chemiluminescent neuraminidase activity inhibition (NI) assay was conducted using a commercially available kit, NA-Star (Applied Biosystems, Foster City, CA) as previously described. Oseltamivir carboxylate and zanamivir were used at 10 half-log dilutions (0.03 to 1000 nM). Values shown represent mean of triplicate analysis.

[4] = target: NA enzymatic activity of A/Hawaii/21/2007 (Influenza A virus (H1N1), UniProt B1AGI9); assay: as above; type: biochemical, IFV A (H1N1); conditions: for R/S: A/Hawaii/21/2007, NI assay
Description: as §1

[5] = target: NA enzymatic activity of A/St.Louis/539/09 (Influenza A virus, UniProt D0FH47); assay: as above; type: biochemical, IFV A (H1N1); conditions: for R/S: NI assay; for IC50: mean of triplicate analysis
Description: as §1

[6] = target: NA enzymatic activity of A/St.Louis/790/09 (Influenza A virus, UniProt D0FH54); assay: as above; type: biochemical, IFV A (H1N1); conditions: for R/S: NI assay; for IC50: mean of triplicate analysis
Description: as §1

[7] = target: NA enzymatic activity of A/St.Louis/792/09 (Influenza A virus, UniProt D0FH55); assay: as above; type: biochemical, IFV A (H1N1); conditions: for R/S: NI assay; for IC50: mean of triplicate analysis
Description: as §1

[8] = target: NA enzymatic activity of A/St.Louis/746/09 (Influenza A virus, UniProt D0FH50); assay: as above; type: biochemical, IFV A (H1N1); conditions: for R/S: NI assay; for IC50: mean of triplicate analysis
Description: as §1

[9] = target: NA enzymatic activity of A/St.Louis/764/09 (Influenza A virus, UniProt D0FH52); assay: as above; type: biochemical, IFV A (H1N1); conditions: for R/S: NI assay; for IC50: mean of triplicate analysis
Description: as §1

[10] = target: NA enzymatic activity of A/St.Louis/690/09 (Influenza A virus, UniProt D0FH49); assay: as above; type: biochemical, IFV A (H1N1); conditions: for R/S: NI assay; for IC50: mean of triplicate analysis
Description: as §1

[11] = target: NA enzymatic activity of A/St.Louis/630/09 (Influenza A virus, UniProt D0FH48); assay: as above; type: biochemical, IFV A (H1N1); conditions: for R/S: NI assay; for IC50: mean of triplicate analysis
Description: as §1

[12] = tested on: A/St.Louis/690/09; type: cell-based, IFV A (H1N1)
[13] = tested on: A/Hawaii/21/07; type: cell-based, IFV A (H1N1)
[14] = tested on: A/HongKong/2765/04; type: cell-based, IFV A (H1N1)
[15] = tested on: A/St.Louis/792/09; type: cell-based, IFV A (H1N1)
[16] = tested on: A/St.Louis/764/09; type: cell-based, IFV A (H1N1)
[17] = tested on: A/St.Louis/746/09; type: cell-based, IFV A (H1N1)
[18] = tested on: A/HongKong/2637/04; type: cell-based, IFV A (H1N1)
[19] = tested on: A/St.Louis/630/09; type: cell-based, IFV A (H1N1)
[20] = tested on: A/St.Louis/790/09; type: cell-based, IFV A (H1N1)
[21] = tested on: A/St.Louis/775/09; type: cell-based, IFV A (H1N1)
[22] = target: NA enzymatic activity of A/Georgia/17/2006 WT (Influenza A virus (H1N1), UniProt A7UPL3); assay: Chemiluminescent neuraminidase activity inhibition (NI) assay; type: biochemical; conditions: for IC50: A/Georgia/17/2006 WT reference virus, mean of triplicate analysis; for R/S: A/Georgia/17/2006 WT, NI assay
Description: as §1

[23] = tested on: A/St.Louis/758/09; type: cell-based, IFV A (H1N1)
[24] = tested on: Human renal proximal tubule cells; assay: Primary cell cytotoxicity, MTS assay; type: cell-based; conditions: 24 hrs or 72 hrs exposure, DAS181 various concentrations, 0.2% thimerosol, 1 mM CdCl2
Source text: (§2) Primary cryopreserved human renal cells (Proximal Tubule Epethelial and Cortical Epethelial cells) were thawed, plated, and propagated according to Cambrex’s recommended protocol. Both renal cell lines were thawed and plated at a seeding density of 2500 cells/cm^2 with Renal Epethelial Basal Medium (REBM) supplemented with Cambrex REGM SingleQuots® (Cambrex CC-4127); which includes recombinant human epidermal growth factor, insulin, GA-1000, 0.5% Fetal Bovine Serum, hydrocortisone, transferrin, epinephrine, and triiodothyronine (T3). The cells were allowed to adhere and equilibrate for 24 hours at 37°C with 5% CO2. […] All the renal cells were further subcultured and seeded into 10 tissue culture-coated 24 well plates per cell line at a seeding density of 2.5x10^3 cells/cm^2. Once the cells reached approximately 70% confluency the 24 well plates were used in cytotoxicity experiments using the REBM supplemented with the REGM SingleQuots®.
(§3) On Day 0 the cell media supernatants were initially collected for baseline controls, before adding fresh media supplemented with either PBS, DAS181 (indicated concentrations), or thimerosal (0.2%) or CdCl^2 (1mM) to serve as positive controls for cytotoxicity. All treatment groups were done in triplicate. Treatments were left on for either 24 hrs or 72 hrs. Subsequently, for the 24 hr exposure conditions fresh media without test article was added to all the wells every 24 hours on days 1-3 (24-72 hours post-treatment); a subset of the wells were used for MTS assay each day. For the 72 hr exposure conditions the media was only changed at 72 hrs, immediately prior to MTS assay. Renal cell media interfered with Lactate Dehydrogenase (LDH) and Alkaline Phosphatase (ALP) assays so these were not performed.
(§4) At each endpoint (24, 48, or 72 hrs) the old media was first replaced with fresh warm media (500uL/well) and the samples were then tested for cell viability using the CellTiter 96® Aqueous Non-Radioactive Cell Proliferation Assay (MTS) kit (Promega, Madison, WI). […] 100μL of each sample was then added to a 96 well plate and read for absorbance at 490 nm. A 1:5 dilution of MTS solution in growth media alone was used as the background. For data analysis, background values were subtracted from all sample values. Values were then normalized using the vehicle control as 100%. Each sample was compared to the vehicle control, via ANOVA with Bonferroni post-test, to determine if there was a statistically significant change in cell viability.

[25] = tested on: Human renal cortical epithelial cells; assay: Primary cell cytotoxicity, MTS assay; type: cell-based; conditions: 24 hrs or 72 hrs exposure, DAS181 various concentrations, 0.2% thimerosol, 1 mM CdCl2
Source text: as §2, §3, §4

Compound: CCC(CC)O[C@@H]1C=C(C(=O)O)C[C@H](N)[C@H]1NC(C)=O [oseltamivir, oseltamivir carboxylate]
- EC50 ([1]; read-out: EC50): > 400 µM
- EC50 ([2]; read-out: EC50): > 400 µM
- R/S [3]: R
- IC50 [3]: 91.8 nM
- R/S [4]: R
- IC50 ([4]; A/Hawaii/21/2007 reference virus, mean of triplicate analysis): 110 nM
- R/S [5]: R
- IC50 [5]: 84.9 nM
- R/S [6]: R
- IC50 [6]: 87.8 nM
- R/S [7]: R
- IC50 [7]: 91.5 nM
- R/S [8]: R
- IC50 [8]: 89.9 nM
- R/S [9]: R
- IC50 [9]: 103 nM
- R/S [10]: R
- IC50 [10]: 178 nM
- R/S [11]: R
- IC50 [11]: 224 nM
- EC50 ([12]; read-out: EC50): > 400 µM
- EC50 ([13]; read-out: EC50): > 285 µM
- EC50 ([14]; read-out: EC50): 2.92 ± 1 µM
- EC50 ([15]; read-out: EC50): > 400 µM
- EC50 ([16]; read-out: EC50): > 400 µM
- EC50 ([17]; read-out: EC50): > 400000 nM
- EC50 ([18]; read-out: EC50): 3270 ± 1320 nM
- EC50 ([19]; read-out: EC50): > 400 µM
- EC50 ([20]; read-out: EC50): > 304 µM
- EC50 ([21]; read-out: EC50): > 320000 nM
- IC50 [22]: 0.37 nM
- R/S [22]: S
- EC50 ([23]; read-out: EC50): > 400 µM

Compound: C[CH2][Hg][S]c1ccccc1C(=O)[O-].[Na+] [thimerosol]
- Cell viability (MTS) vs PBS [24]: significant reduction in cell viability
- Cell viability (MTS) vs PBS [25]: significant reduction in cell viability

Compound: [Cl][Cd][Cl] [CdCl2, cadmium chloride]
- Cell viability (MTS) vs PBS [24]: significant reduction in cell viability
- Cell viability (MTS) vs PBS [25]: significant reduction in cell viability

Compound: CC(=O)N[C@H]1[C@H]([C@H](O)[C@H](O)CO)OC(C(=O)O)=C[C@@H]1N=C(N)N [zanamivir]
- EC50 ([1]; read-out: EC50): > 332 µM
- EC50 ([1]; read-out: EC50 Zanamivir): > 332 µM
- EC50 ([2]; read-out: EC50): 7.02 ± 2.46 µM
- EC50 ([2]; read-out: EC50 Zanamivir): 7.02 ± 2.46 µM
- R/S [3]: S
- IC50 [3]: 0.33 nM
- R/S [4]: S
- R/S [5]: S
- IC50 [5]: 0.28 nM
- R/S [6]: S
- IC50 [6]: 0.29 nM
- R/S [7]: S
- IC50 [7]: 0.28 nM
- R/S [8]: S
- IC50 [8]: 0.3 nM
- R/S [9]: S
- IC50 [9]: 0.3 nM
- R/S [10]: S
- IC50 [10]: 0.44 nM
- R/S [11]: S
- IC50 [11]: 0.48 nM
- EC50 ([12]; read-out: EC50): > 182 µM
- EC50 ([12]; read-out: EC50 Zanamivir): > 182 µM
- EC50 ([13]; read-out: EC50): 45 ± 22.5 µM
- EC50 ([13]; read-out: EC50 Zanamivir): 45 ± 22.5 µM
- EC50 ([14]; read-out: EC50): 4.17 ± 0.53 µM
- EC50 ([14]; read-out: EC50 Zanamivir): 4.17 ± 0.53 µM
- EC50 ([15]; read-out: EC50): > 156 µM
- EC50 ([15]; read-out: EC50 Zanamivir): > 156 µM
- EC50 ([16]; read-out: EC50): > 273 µM
- EC50 ([16]; read-out: EC50 Zanamivir): > 273 µM
- EC50 ([17]; read-out: EC50): 1960 ± 420 nM
- EC50 ([17]; read-out: EC50 Zanamivir): 1960 ± 420 nM
- EC50 ([18]; read-out: EC50): 1820 ± 460 nM
- EC50 ([18]; read-out: EC50 Zanamivir): 1820 ± 460 nM
- EC50 ([19]; read-out: EC50): 62.1 ± 34.8 µM
- EC50 ([19]; read-out: EC50 Zanamivir): 62.1 ± 34.8 µM
- EC50 ([20]; read-out: EC50): 3.12 ± 1.83 µM
- EC50 ([20]; read-out: EC50 Zanamivir): 3.12 ± 1.83 µM
- EC50 ([21]; read-out: EC50): 1200 ± 360 nM
- EC50 ([21]; read-out: EC50 Zanamivir): 1200 ± 360 nM
- IC50 [22]: 0.44 nM
- R/S [22]: S
- EC50 ([23]; read-out: EC50): 7.06 ± 2.84 µM
- EC50 ([23]; read-out: EC50 Zanamivir): 7.06 ± 2.84 µM
